The results in this text go back to ChEMBL document CHEMBL1201862, “PubChem BioAssay data set” (2004).

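Growth conditions: 96-well plates. Treatment: test compound, 48 hours, 5 concentrations. Analysis: linear interpolation between bracketing concentrations; unreached endpoints set to highest concentration. The concentration for 50% growth inhibition is given as GI50.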 Calls of active or inactive are those of the source. No stated cut-off is given here; in the data, active = GI50 up to about 1.1 µM and inactive = higher. Where a SMILES comes first, the peptide text is derived from it. The star is where a group is joined. Boc = CC(C)(C)OC(=O)*

Test systems include RXF 393; HCC 2998; SK-MEL-2; SW-620; HT-29; NCI-H522; KM12; TK-10; SF-539; DU-145; NCI-H23; Hs-578T; MDA-MB-231; CCRF-CEM; HOP-62; HOP-92; SK-MEL-5; UO-31; NCI/ADR-RES; SK-OV-3.
Common to all, as to assay: NCI-60 cell line screen, 48 h

Regarding `COCCNC1CCC(=O)c2[nH]c3ccccc3c21` (stereo unspecified), the GI50 with RXF 393, in the test on HCC 2998, in the test on SK-MEL-2, in the test on SW-620, in the test with HT-29 and in the test with NCI-H522 was > 100 µM (inactive) in each case. Further, the GI50 with KM12 is > 100 µM (inactive); in the test with TK-10 it was > 100 µM (inactive); in the test on SF-539, > 100 µM (inactive); in the test on DU-145, > 100 µM (inactive); in the test on NCI-H23, > 100 µM (inactive); with Hs-578T it was 83.9 µM (inactive). Besides, the GI50 was > 100 µM (inactive) in the test with MDA-MB-231; > 100 µM (inactive) with CCRF-CEM; > 100 µM (inactive) in the test with HOP-62; > 100 µM (inactive) in the test with HOP-92; > 100 µM (inactive) in the test with SK-MEL-5; 65.8 µM (inactive) in the test on UO-31. Further, the GI50 with NCI/ADR-RES is > 100 µM (inactive).

As for `Cc1c(Cc2ccccc2)n(C(C)OCCN(OC(=O)Oc2ccccc2)C(=O)Oc2ccccc2)c(=O)[nH]c1=O` (stereo unspecified), the GI50 with SK-OV-3 was 17.4 µM (inactive); in the test on RXF 393 it was 15.8 µM (inactive); in the test with HCC 2998 it was 17.3 µM (inactive); in the test with SK-MEL-2 it was 19.7 µM (inactive); in the test with SW-620 it was 20.7 µM (inactive); in the test on HT-29, 16.1 µM (inactive). Moreover, the GI50 was 14.5 µM (inactive) with NCI-H522; 15.8 µM (inactive) in the test on KM12; 19.1 µM (inactive) in the test with SF-539; 28.5 µM (inactive) in the test on DU-145; 16.3 µM (inactive) in the test with NCI-H23; 12.9 µM (inactive) in the test on Hs-578T. Moreover, the GI50 in the test on MDA-MB-231 is 19.5 µM (inactive); with CCRF-CEM, 12.4 µM (inactive); in the test on HOP-62, 18.1 µM (inactive); in the test on HOP-92, 13.5 µM (inactive); in the test on SK-MEL-5, 14.3 µM (inactive); with UO-31 it was 14.5 µM (inactive). Further, in the test on NCI/ADR-RES, the GI50 is 16.9 µM (inactive).

With `COc1ccc([C@@]23Oc4cc(OC)cc(OC)c4[C@]2(O)[C@H](O)[C@H](C(=O)N(C)C)[C@H]3c2ccccc2)cc1` [ROCAGLAMIDE], the GI50 with SK-OV-3 is 0.00575 µM (active); with RXF 393 it was 0.0206 µM (active); in the test with HCC 2998 it was 0.00289 µM (active); in the test with SK-MEL-2, 0.0197 µM (active); in the test on SW-620, 0.00299 µM (active); with HT-29, 0.00224 µM (active). Moreover, the GI50 in the test with NCI-H522 is 0.0104 µM (active); in the test with KM12, 0.00294 µM (active); in the test with TK-10, 0.0146 µM (active); in the test with DU-145, 0.00809 µM (active); in the test with NCI-H23, 0.00885 µM (active); with Hs-578T, 0.00875 µM (active). Besides, the GI50 in the test with MDA-MB-231 was 0.00776 µM (active); in the test on CCRF-CEM, 0.00366 µM (active); in the test on HOP-62, 0.00973 µM (active); in the test on HOP-92 it was 0.0138 µM (active); in the test with SK-MEL-5 it was 0.00301 µM (active); in the test with UO-31, 0.0158 µM (active). The GI50 in the test on NCI/ADR-RES is 0.0306 µM (active).

In the case of `COc1cc(/C=C2\C(=O)N(Cc3ccccc3)C(c3ccccc3)S2(=O)=O)cc(OC)c1OC` (stereo unspecified), the GI50 in the test with SK-OV-3 was > 100 µM (inactive); with RXF 393, 62.7 µM (inactive); in the test on HCC 2998, > 100 µM (inactive); in the test on SK-MEL-2, 27.1 µM (inactive); in the test on SW-620, 79.1 µM (inactive); in the test with HT-29, 51.6 µM (inactive). The GI50 in the test on NCI-H522 is 14.2 µM (inactive); in the test with KM12 it was 34.7 µM (inactive); in the test with TK-10 it was 36.1 µM (inactive); in the test with DU-145 it was 91.6 µM (inactive); in the test with NCI-H23, 33.4 µM (inactive); in the test with Hs-578T, 9.73 µM (inactive). Also, the GI50 was > 100 µM (inactive) in the test on MDA-MB-231; 36.5 µM (inactive) in the test on CCRF-CEM; > 100 µM (inactive) in the test with HOP-62; 50.2 µM (inactive) in the test on HOP-92; 12 µM (inactive) in the test with SK-MEL-5; 21.8 µM (inactive) with UO-31. In the test on NCI/ADR-RES, the GI50 was 27.6 µM (inactive).

As for `CCCc1cc(O)c2c(C)c3[nH]c4ccc(Cl)cc4c3c(C)c2n1`, the GI50 with RXF 393 was 1.51 µM (inactive); with HCC 2998, 1.62 µM (inactive); with SK-MEL-2 it was 3.57 µM (inactive); in the test with SW-620 it was 1.63 µM (inactive); with HT-29, 1.77 µM (inactive); in the test on NCI-H522 it was 1.87 µM (inactive). Also, the GI50 with KM12 is 3.48 µM (inactive); with TK-10 it was 1.94 µM (inactive); in the test with SF-539, 1.92 µM (inactive); with DU-145 it was 6.3 µM (inactive); with NCI-H23, 2.91 µM (inactive); in the test with Hs-578T it was 9.57 µM (inactive). The GI50 in the test with MDA-MB-231 is 1.85 µM (inactive); in the test on CCRF-CEM, 2.07 µM (inactive); in the test with HOP-62, 2.2 µM (inactive); in the test on HOP-92, 2.31 µM (inactive); in the test with SK-MEL-5, 9.68 µM (inactive); in the test on UO-31, 1.75 µM (inactive). In addition, the GI50 in the test with NCI/ADR-RES was 3.21 µM (inactive).

For the molecule `Nc1nc(NCC2(CO)CC2)cc(=O)[nH]1`, the GI50 with SK-OV-3, in the test on RXF 393, in the test with HCC 2998, with SK-MEL-2, with SW-620 and in the test on HT-29 was > 100 µM (inactive) in each case. For the same molecule, the GI50 in the test with NCI-H522, in the test with KM12, in the test on DU-145, in the test on NCI-H23, in the test on Hs-578T and with MDA-MB-231 was > 100 µM (inactive) each time. Also, the GI50 in the test on CCRF-CEM, in the test with HOP-62, in the test with HOP-92, in the test with SK-MEL-5, with UO-31 and in the test with NCI/ADR-RES was > 100 µM (inactive) throughout.

`Cc1cccc(Nc2nc(NNC(=O)Cc3ccccc3)nc(NNC(=O)c3ccncc3)n2)c1`: the GI50 with SK-OV-3, in the test on RXF 393, with HCC 2998, in the test with SW-620, with HT-29 and in the test on NCI-H522 was > 10 µM (inactive) throughout. Moreover, the GI50 in the test with KM12, in the test with TK-10, in the test with SF-539, in the test with DU-145, in the test with NCI-H23 and in the test with Hs-578T was > 10 µM (inactive) throughout. Moreover, the GI50 with MDA-MB-231, in the test with CCRF-CEM, with HOP-62, in the test on HOP-92, in the test with SK-MEL-5 and in the test on UO-31 was > 10 µM (inactive) throughout. The GI50 in the test on NCI/ADR-RES is > 10 µM (inactive).

`COC(=O)CNC(=O)C(Cc1ccccc1)NC(=O)C(CCSC)NC(=O)C(Cc1ccc(O)cc1)NC(=O)OC(C)(C)C` (stereo unspecified) (Boc-YMFG-OMe; configuration not given here): the GI50 with SK-OV-3 is > 100 µM (inactive); with RXF 393, 47.6 µM (inactive); with HCC 2998, 23.2 µM (inactive); in the test on SK-MEL-2, 18.1 µM (inactive); in the test on SW-620 it was 40.3 µM (inactive); in the test with HT-29 it was 33 µM (inactive). The GI50 in the test on NCI-H522 was 19.4 µM (inactive); in the test on KM12, > 100 µM (inactive); in the test on TK-10, > 100 µM (inactive); in the test with SF-539, > 100 µM (inactive); with DU-145, > 100 µM (inactive); in the test on NCI-H23, 56.1 µM (inactive). Further, the GI50 in the test with Hs-578T was > 100 µM (inactive); with MDA-MB-231 it was 24.5 µM (inactive); with HOP-62, 31.5 µM (inactive); in the test with HOP-92, 26.4 µM (inactive); in the test with SK-MEL-5, > 100 µM (inactive); in the test with UO-31 it was > 100 µM (inactive). In addition, the GI50 in the test on NCI/ADR-RES is > 100 µM (inactive).

With `CC(C)(C)OC(=O)[N+](=N)C(=O)C1CCC(=O)N1C(=O)OCc1ccccc1` (stereo unspecified), the GI50 in the test with SK-OV-3, with RXF 393, in the test on HCC 2998, with SW-620, in the test on HT-29 and in the test with NCI-H522 was > 100 µM (inactive) each time. The GI50 in the test with KM12, in the test on TK-10, in the test with DU-145, in the test with NCI-H23, in the test on Hs-578T and in the test with MDA-MB-231 was > 100 µM (inactive) in each case. For the same molecule, the GI50 in the test on CCRF-CEM, with HOP-62, in the test with HOP-92, in the test on SK-MEL-5, in the test on UO-31 and in the test with NCI/ADR-RES was > 100 µM (inactive) each time.

Regarding `CC(CCc1nc2ccccc2s1)(c1ccc(O)cc1)c1ccc(O)cc1`, the GI50 with RXF 393 is 18 µM (inactive); with HCC 2998, 19.7 µM (inactive); in the test on SK-MEL-2, 17 µM (inactive); in the test with SW-620 it was 19.8 µM (inactive); in the test on HT-29 it was 20.1 µM (inactive); with NCI-H522, 15 µM (inactive). Also, the GI50 in the test with KM12 was 15.4 µM (inactive); with TK-10, 19.9 µM (inactive); in the test with DU-145, 17.1 µM (inactive); in the test on NCI-H23, 17.6 µM (inactive); in the test on Hs-578T it was 20.4 µM (inactive); in the test with MDA-MB-231 it was 17.9 µM (inactive). In addition, the GI50 in the test on HOP-62 was 17.7 µM (inactive); in the test with HOP-92 it was 20.1 µM (inactive); in the test on SK-MEL-5, 18.4 µM (inactive); in the test with UO-31, 16.1 µM (inactive); with NCI/ADR-RES, 25.4 µM (inactive).
